Laboratory results: patent publication US8497272B2, “Compounds for treating proliferative disorders” (Synta Pharmaceuticals Corp., priority 2006, dated 2013)

Test system: inducible human Hsp70
Test: Hsp70 RNA induction by quantitative PCR analysis in Ramos B cells
Format: cell-based
Settings: 500 nM compound, 6 hours, Hsp70 RNA relative to gapdh; for % induction relative to Compound X: Compound X set to 100%; for fold induction at 0.5 µM: Homo sapiens, read-out: fold induction over DMSO
Method: The ability of the compounds of the invention to induce Hsp70 RNA induction by quantitative PCR analysis was examined. Ramos B cells were treated with 500 nM each compound for 6 hours and the RNA was isolated from the cells. Quantitative PCR was performed as described below:
Details for Quantitative PCR are as follows:
500 ng of RNA from each sample was used for cDNA synthesis using iScript cDNA Synthesis Kit (Biorad, Cat#170-8891). 1 ul of cDNA mixture was used with the iQ SYBR Green Supermix (Biorad, Cat#170-8882) to perform quantitative PCR in an iCycler machine (Biorad) using standard protocols. QPCR for each sample/time point was performed in duplicate. The following primers for inducible human Hsp70 and gapdh were used: […]
Ct values were obtained from the iCycler program and used in an equation (2^−ΔΔCT) for determining the amount of target relative to gapdh expression. This compares the relative expression of Hsp70 to the corresponding levels of gapdh in each sample. Duplicate wells were averaged. The amount of N-Malonyl-bis(N′-methyl-N′ thiobenzoylhydrazide) (Compound X) induction of Hsp70 was set to 100% and the percent of induction of Hsp70 by the compounds of the invention was determined relative to 100%.

Row | SMILES | % induction relative to Compound X [%] | fold induction at 0.5 µM
1 | CN(NC(=O)CC(=O)NN(C)C(=S)NC1CC1)C(=S)NC1CC1 [Compound 69] | 0.12 | 0.3
2 | CN(NC(=O)CC(=O)NN(C)c1nccs1)c1nccs1 [Compound 71] | 0.33 | 0.87
3 | CN(NC(=O)CC(=O)NN(C)C(=S)Nc1ccccc1)C(=S)Nc1ccccc1 [Compound 67] | 0.09 | 0.22
4 | CN(NC(=O)c1cc(=O)cc(C(=O)NN(C)C(=S)c2ccccc2)o1)C(=S)c1ccccc1 [Compound 74, N′2,N′6-dimethyl-4-oxo-N′2,N′6-di(phenylcarbonothioyl)-4H-pyran-2,6-dicarbohydrazide] | 0.22 | 0.59
5 | COC(=S)N(C)NC(=O)CC(=O)NN(C)C(=S)OC [Compound 70] | 0.57 | 1.41
